Measurements as given in patent US20250312416A1, “METHOD AND PHARMACEUTICAL COMPOSITION FOR CARTILAGE REGENERATION” (FAR EASTERN MEMORIAL HOSPITAL, priority 2024, published 2025).
“Also recorded” adds a separate entry of the source.

Legend:
clinical-grade ADSCs [1] = assay: Alcian blue staining of chondrogenic pellets (GAG), ADSCs; type: cell-based, human; settings: for GAG deposition (Alcian blue): day 7, CXCL14 variants vs CXCL14-P, CXCR4-PM1 vs control
Method: The chondrogenic differentiation of pellets containing clinical-grade ADSCs was assessed through Alcian blue staining.
The chondrogenic differentiation of pellets containing clinical-grade ADSCs was evaluated using Alcian blue staining.
(§1) Alcian blue staining was used to assess the chondrogenic differentiation of ADSC pellets. […] Treatment with CXCL14-PM1, CXCL14-PM2, CXCL14-PM3, and CXCR4-PM1 was sufficient to enhance the expression of chondrogenic genes in ADSCs. On day 7, real-time PCR was performed to analyze the expression of key chondrogenic markers, including SOX9, COL2A1, COMP, ACAN, ITGB1, CXCL14, and CXCR4, in ADSCs treated with these modified peptides. ADSCs were exposed to distinct peptide modifications derived from CXCL12, CXCL14, and CXCR4 at a concentration of 10 ng for a one-day treatment, after which the medium was replaced with fresh peptide-free medium. At the end of the treatment period, RNA was extracted to evaluate the expression levels of chondrogenesis-related cytokine genes. Gene expression quantification was performed using a LightCycler system (Roche Applied Science), and fold changes were calculated relative to untreated control ADSCs. […] FIG. 16(D) provides a summary of the results for alanine substitution with positively or negatively charged amino acids in CXCL12, CXCL14, and CXCR4 peptides.
To assess differentiation capacity, single-cell suspensions from cultured IPFP-MSCs and ADSCs were cultivated in chondrogenic medium. Alcian Blue staining was performed on day 7 to evaluate chondrogenic differentiation. The chondrogenic differentiation test was measured gene expressions of ACAN, COL2A1, SOX9, COMP, ITGB1, CXCL14 and SOSTDC1.

clinical-grade ADSCs [2] = assay: Real-time PCR of chondrogenic genes in ADSCs; type: cell-based, human; settings: for expression of chondrogenic genes (SOX9, COL2A1, COMP, ACAN, ITGB1, CXCL14, CXCR4): alanine-substituted variants, 10 ng one-day treatment, day 7, relative to untreated control ADSCs
Method: Real-time PCR analysis was conducted on day 7 for CXCL12/CXCL14 peptides treated ADSCs, evaluating the expression of COMP, SOX9, COL2A1, ACAN, ITGB1, and SOSTDC1 genes. Cells were harvested, and RNA extraction was performed using a LightCycler® (Roche Applied Science). The fold change in gene expression on the y-axis was calculated relative to the same gene expression in untreated chondrocytes. Statistical analysis was conducted using one-way ANOVA. Significance levels are denoted as follows: * p<0.05, ** p<0.01, *** p<0.001, and **** p<0.0001 for comparisons between PBS treatments and the untreated group.
Real-time PCR analysis was performed on day 7 for ADSCs treated with CXCR4 agonists, assessing the expression of COMP, SOX9, COL2A1, ACAN, ITGB1, CXCL14, and SOSTIC1 genes. Cellular harvest, RNA extraction, and gene expression quantification were conducted using a LightCycler® (Roche Applied Science). The fold change in gene expression on the y-axis was calculated relative to the same gene expression in untreated chondrocytes. Statistical analysis was executed through one-way ANOVA. Significance levels are represented as follows: * p<0.05, ** p<0.01, *** p<0.001, and **** p<0.0001, indicating the significance of comparisons between PBS treatments and the untreated group.
as §1
ADSCs were treated with CXCL14-P, CXCL14-P1, or CXCL14-P2, respectively, at a concentration of 10 ng for 24 hours, after which the medium was replaced with fresh peptide-free medium. On day 7, total RNA was extracted, and real-time PCR analysis was performed to assess the expression levels of key chondrogenic markers, including ACAN, COL2A1, SOX9, and COMP. Gene expression levels were quantified using a LightCycler system (Roche Applied Science), with fold changes calculated relative to untreated control ADSCs. […] Immunofluorescence staining was performed to detect Collagen Type II, SOX9, COMP, and nuclei (Hoechst 33342) in 3D ADSC spheroids (middle panel). […]
Human IPFP-MSCs and ADSCs were expanded in Dulbecco's Modified Eagle's Medium (DMEM, Gibco, cat. no 2145484) with 10% FBS under a 37° C., 5% CO2 atmosphere. MSCs collected and cell extractions were determined gene expression levels of cytokines and chondrogenic markers using a LightCycler® (Roche Applied Science). The fold change in gene expression on the y-axis was calculated based on untreated cell gene expression.

ADSCs = assay: Cellular uptake of fluorescently labeled peptides by fluorescence microscopy; type: cell-based, human; settings: 10 ng FITC-conjugated peptide, 37° C. for one day, observed days 1, 3, 7
Method: Cell-penetrating properties of CXCL14-P and CXCL12-P peptides in ADSCs were analyzed. ADSCs were incubated with 10 ng of FITC-conjugated peptides at 37° C. for one day, followed by refreshing the chondrogenic medium. Peptide internalization was evaluated through fluorescence microscopy on days 1, 3, and 7.
We further explored whether peptides derived from CXCL14 and CXCL12 have the capacity to induce chondrogenesis in MSCs from different sources. To assess their potential, ADSCs were utilized in the study to evaluate the chondrogenic capacity of CXCL14-P and CXCL12-P on day 7 (FIG. 10A). […] FIG. 11 illustrates the cell-penetrating properties of CXCL14-P and CXCL12-P peptides in ADSCs, analyzed at different time points. ADSCs were incubated with FITC-conjugated peptides for one day, after which the chondrogenic medium was refreshed. […] Collectively, these observations indicate that CXCL14-P and CXCL12-P have the ability to stimulate chondrogenesis and further amplify the effects of TGF-β during the chondrogenic process.

UC-MSCs [3] = assay: Alcian blue staining of chondrogenic pellets (GAG), UC-MSCs; type: cell-based; settings: in the presence of TGF-beta
From the text: (§2) FIG. 13A provides flowchart illustrating the protocol for peptide treatment and sample collection. […] TGF-beta influenced the expression of chondrogenic genes, including ITGB1 and COMP. […] Treatment with CXCL14/CXCL12 peptides increased GAG content during chondrogenesis in the presence of TGF-beta.
(§3) To further validate the role of CXCL14-P and CXCL12-P in regulating chondrogenesis, we compared their effects on another MSC source, umbilical cord-derived mesenchymal stem cells (UC-MSCs). It is important to note that the chondrogenic induction medium contained TGF-β. During chondrogenesis, we observed that the chondrogenic patterns in UC-MSCs were lower than those in ADSCs (FIG. 12). Subsequently, we assessed the chondrogenic potential of UC-MSCs following stimulation with CXCL14-P and CXCL12-P (FIG. 13A). […] Although the expression of chondrogenic genes (FIG. 13B) and GAG content (FIG. 13C) in UC-MSCs was not as pronounced as in ADSCs, the findings confirm that CXCL14-P and CXCL12-P can robustly stimulate chondrogenesis across different MSC sources.

UC-MSCs [4] = assay: Real-time PCR of chondrogenic genes in UC-MSCs; type: cell-based; settings: day 7 of peptide treatment
From the text: as §2, §3

ADSC spheroids = assay: Immunofluorescence / confocal microscopy of chondrogenic proteins in ADSC spheroids; type: cell-based, human; settings: ADSC spheroids, 7 days
Method: Both side views (observed in the x and z plane) and bottom views (observed in the […]) of the images are provided. The scale bar is set at 500 μm.
ADSCs were treated with CXCL14-P, CXCL14-P1, or CXCL14-P2, respectively, at a concentration of 10 ng for 24 hours, after which the medium was replaced with fresh peptide-free medium. On day 7, total RNA was extracted, and real-time PCR analysis was performed to assess the expression levels of key chondrogenic markers, including ACAN, COL2A1, SOX9, and COMP. Gene expression levels were quantified using a LightCycler system (Roche Applied Science), with fold changes calculated relative to untreated control ADSCs. […] Immunofluorescence staining was performed to detect Collagen Type II, SOX9, COMP, and nuclei (Hoechst 33342) in 3D ADSC spheroids (middle panel).
(FIG. 3). […] Moreover, fluorescence confocal microscopy was employed to detect protein patterns and confirm the levels of SOX9, type II collagen, and aggrecan proteins in ADSC spheroids. […] Finally, to investigate whether the CXCR4 receptor of CXCL12/CXCL14 confers chondrogenic signaling during chondrogenesis, we treated ADSCs with a CXCR4 agonist for 7 days.
Extracellular vesicles (EVs) derived from MSCs hold significant potential for repairing damaged tissues. In this study, we explored whether EVs from ADSCs could effectively enhance chondrogenesis and promote cartilage repair. Immunofluorescence staining was used to assess protein levels of Collagen Type II (green), SOX9 (red), COMP (indigo), and Hoechst 33342 (gray) in 3D ADSC spheroids treated with MSC-EVs derived from CXCL14 peptide-primed ADSCs (CXCL14-P-MSC-EVs) at various time points. […] To further explore the cartilage repair functions of EVs from CXCL14-P-treated ADSCs and the encapsulation of the transcription factor SOX9 within MSCs and purified EVs, we performed in vivo studies.

ITTKSVSRYRGDEH [CXCL14-PM3]
GAG deposition (Alcian blue) (clinical-grade ADSCs [1]): increased GAG deposition; also recorded: did not significantly alter GAG contents
expression of chondrogenic genes (SOX9, COL2A1, COMP, ACAN, ITGB1, CXCL14, CXCR4) (clinical-grade ADSCs [2]): significantly enhance

AANVAHLAILN [CXCL12-PM1]
expression of chondrogenic marker genes, variant vs unmodified peptide (clinical-grade ADSCs [2]; CXCL12-P vs CXCL12-PM1, day 7): no significant changes
expression of chondrogenic genes (SOX9, COL2A1, COMP, ACAN, ITGB1, CXCL14, CXCR4) (clinical-grade ADSCs [2]): significantly enhance

MGYGAALASMTDAYAL (MGYQAALASMTDAYAL) [CXCR4-PM1]
GAG deposition (Alcian blue) (clinical-grade ADSCs [1]): increased GAG deposition; also recorded: significantly enhanced
expression of chondrogenic genes (SOX9, COL2A1, COMP, ACAN, ITGB1, CXCL14, CXCR4) (clinical-grade ADSCs [2]): significantly enhance

ITTKSVSRYRGQAH [CXCL14-PM2]
GAG deposition (Alcian blue) (clinical-grade ADSCs [1]): increased GAG deposition; also recorded: enhance GAG contents
expression of chondrogenic genes (SOX9, COL2A1, COMP, ACAN, ITGB1, CXCL14, CXCR4) (clinical-grade ADSCs [2]): significantly enhance

ITTASVSAYAGQEH [CXCL14-PM1]
GAG deposition (Alcian blue) (clinical-grade ADSCs [1]): increased GAG deposition; also recorded: enhance GAG contents
expression of chondrogenic genes (SOX9, COL2A1, COMP, ACAN, ITGB1, CXCL14, CXCR4) (clinical-grade ADSCs [2]): significantly enhance

RANVKHLKILN [CXCL12-P]
GAG content (Alcian blue) (clinical-grade ADSCs [1]; in the absence of TGF-β): evident
GAG content (Alcian blue) (clinical-grade ADSCs [1]; in the presence of TGF-beta): significantly increased
GAG content (Alcian blue) (clinical-grade ADSCs [1]; peptides compared to CXCL14/CXCL12 proteins, listed as CXCL12 peptide): significantly higher; also recorded: greater ability
peptide internalization (cell penetration) (ADSCs): remain detectable up to day 7
GAG content (Alcian blue) (UC-MSCs [3]): increased
expression of chondrogenic genes (COMP, SOX9, COL2A1, ACAN, ITGB1, SOSTDC1) (clinical-grade ADSCs [2]; day 7, peptides compared to CXCL12/CXCL14 proteins, listed as CXCL12 peptide): significantly upregulated; also recorded: greater ability
expression of chondrogenic genes (COMP, SOX9, COL2A1, ACAN, ITGB1) (clinical-grade ADSCs [2]; day 7 of treatment with peptide): significantly upregulated
chondrogenic genes (clinical-grade ADSCs [2]; in the absence of TGF-β): evident
expression of chondrogenic genes ITGB1 and COMP (clinical-grade ADSCs [2]; in the presence of TGF-β, day 7): significantly enhanced
chondrogenic gene expression (COMP, SOX9, COL2A1, ACAN, ITGB1) (UC-MSCs [4]): significantly upregulated

CXCL12: C-X-C motif chemokine 12, also known as stromal cell-derived factor 1 (SDF-1)
expression of SOX9, type II collagen, and aggrecan (ADSC spheroids): notably induced
